Values of other authors as cited in US20100151037A1, “METHOD FOR THE PREPARATION OF NANOPARTICLES CONTAINING A POORLY WATER-SOLUBLE […] ACTIVE COMPOUND” (priority 2008, published 2010).

Conditions: dry powder form

Compound: COC1=C(OC)C(=O)C(C/C=C(\C)CC/C=C(\C)CC/C=C(\C)CC/C=C(\C)CC/C=C(\C)CC/C=C(\C)CC/C=C(\C)CC/C=C(\C)CC/C=C(\C)CCC=C(C)C)=C(C)C1=O [Coenzyme Q10]
- bioavailability: as low as three percent
